Test results as given in patent publication US9345694B2, “Compounds for enhancing arginase activity and methods of using same” (Cornell Research Foundation, Inc., priority 2006, dated 2016).

What was measured:
[1] = test system: myelin-associated glycoprotein (MAG) inhibition in P7 rat cerebellar neurons; experiment: MAG inhibition analysis, neurite outgrowth of P7 rat cerebellar neurons on MAG-overexpressing CHO cells, post-treatment; format: cell-based; conditions: 10 nM and 40 nM, 24 h in culture, CHO-MAG vs control CHO cells
Description: Compounds were tested for their ability to overcome myelin-associated glycoprotein (MAG) inhibition in P7 rat cerebellar neurons.
In experiments performed in the Roman Giger laboratory at the University of Rochester School of Medicine and Dentistry, twelve compounds were tested, using the materials and methods described by Venkatesh, et al., J Neurosci.
The twelve compounds were tested in two different dilutions (10 nM and 40 nM final concentration).
MAG-overexpressing CHO cells and control CHO feeder layers were used in the assay. All experiments were done with Percoll purified P7 rat cerebellar neurons. The twelve compounds were tested in a “post-treatment” manner. Post-treatment refers to administering the compounds after the neurons were plated.
After 24 h in culture, cells were fixed and stained with TuJ1 (cells with neurites longer than 1 cell body diameter were quantified). Untreated cells (first column of FIGS. 11 and 12) and DMSO only (second column of FIGS. 11 and 12) were used as a negative controls. RHO-kinase inhibitor Y27632 (15 microM) (third column of FIGS. 11 and 12) was used as a positive control. All experiments have been repeated 3-5 times independently.
In FIGS. 11 and 12, there are two bars for each compound tested.

[2] = test system: myelin-associated glycoprotein (MAG) inhibition in p5 rat cerebellar neurons; experiment: MAG inhibition analysis, neurite outgrowth of p5 rat cerebellar neurons on MAG-expressing CHO cells, direct addition or priming; format: cell-based; conditions: priming overnight at 20 μM, then plated on MAG-expressing CHO cells
Description: Compounds were tested for their ability to overcome myelin-associated glycoprotein (MAG) inhibition in primary rat neurons. […] In a first experiment, the twelve compounds were tested for their ability to overcome inhibition by MAG in culture. The compounds were tested for their ability to inhibit neurite outgrowth of MAG-expressing CHO cells. Cerebellar neurons were cultured on MAG-expressing CHO cells and neurite length is compared to neurons growing on control CHO cells, not expressing MAG. The cells were assessed for their ability to overcome MAG inhibition when added directly to the cultures at a range of concentrations from 2-20 μM. Neurons were plated at a density of about 10,000 neurons per well of an 8-well culture dish containing a monolayer of either MAG-expressing or control CHO cells. The co-cultures were, incubated for 16-18 h and then immunostained for βIII tubulin. Neurite outgrowth was quantified as previously described (Mukhopadhyay et al., 1994). […] At least 400 neurons were measured in each assay and the experiment was carried out at least twice.

Arginase I protein [3] = experiment: Western blotting and immunostaining for Arginase I protein in treated neurons; format: cell-based, rat; conditions: neurons treated at 20 μM for 18 hours
Description: FIG. 15. Western blot and immunostaining results for arginase I protein. Neurons were treated with, daidzein (20 μM), methoxyvone (5 μM) or lanzoprazole (20 μM) for 18 hours and were then lysed and subjected to gel electrophoresis, followed by western blotting and immunostaining for Arginase I protein. As a positive control, neurons were treated with 1 mM db cAMP.
In a second experiment, the twelve compounds were tested for their ability to upregulate arginase I protein. Neurons were treated with, daidzein (20 μM), methoxyvone (5 μM) or lanzoprazole (20 μM) for 18 hours and were then lysed and subjected to gel electrophoresis, followed by western blotting and immunostaining for Arginase I protein. As a positive control, neurons were treated with 1 mM db cAMP (FIG. 15). Db-cAMP was previously shown to increased Arginase I protein 3-fold as described by Cai, et a., Neuron. 2002 Aug. 15; 35(4):711-9.

Arginase I protein [4] = conditions: Cai et al., cited from earlier work

SMILES	effect on releasing MAG inhibition [1]	further results
CC(=O)Nc1ccc(O)cc1 [Acetaminophen, reference compound]	no effect	
COc1ccc(C[C@H]2NC[C@H](O)[C@H]2OC(C)=O)cc1 [Anisomycin, reference compound]	most promising	
O=C(/C=C/c1ccc(O)c(O)c1)OCCc1ccccc1 [CAPE, Phenethyl caffeate]	no effect	
O=c1c(-c2ccc(O)cc2)coc2cc(O)ccc12 [Daidzein]	no effect	ability to overcome inhibition by MAG (neurite outgrowth) [2]: overcome inhibition by MAG completely; Arginase I protein level (Arginase I protein [3]): up-regulated
CCCC(=O)Nc1ncnc2c1ncn2[C@@H]1O[C@@H]2COP(=O)(O)O[C@H]2[C@H]1OC(=O)CCC [Db-cAMP]		increase of Arginase I protein (Arginase I protein [4]; previously shown, Neuron 2002): 3 fold; Arginase I up-regulation (Arginase I protein [4]; shown previously, 2002): up-regulated
COc1ccc2c(c1)OCc1c-2oc2cc(OC)ccc12 [Dehydrovariabilin]	most promising	
COc1cc(OC)c2c(=O)c(-c3ccc4c(c3)OCO4)coc2c1 [Derrustone]	no effect	
COC(=O)Nc1nc2ccc(Sc3ccccc3)cc2[nH]1 [Fenbendazole, reference compound]	most promising	
Cc1c(OCC(F)(F)F)ccnc1C[S+]([O-])c1nc2ccccc2[nH]1 (stereo not shown) [Lanzoprazole, Lansoprazole, reference compound]		ability to overcome inhibition by MAG (neurite outgrowth) [2]: overcome inhibition by MAG completely; Arginase I protein level (Arginase I protein [3]): up-regulated
Oc1cc(O)cc(/C=C/c2ccccc2)c1 [Pinosylvin]	most promising	
COc1ccc(/C=C/c2cc(O)cc(O)c2)cc1 [Resveratol 4-methyl ether]	no effect	
CC(=O)Oc1cc(OC(C)=O)c2c(c1)O[C@H](c1ccc(OC(C)=O)c(OC(C)=O)c1)[C@H](OC(C)=O)C2 [epicatechin pentaacetate, Epicatechin pentaacetate]	no effect	
